As usually defined, the EC50 is the concentration needed to bring the measured effect to its halfway point.

We go through 24 compounds from patent publication US11046680B1, “Heteroaryl-substituted triazoles as APJ receptor agonists” (priority 2016, dated 2021).

The experiment has as its target human APJ receptor (Homo sapiens (Human), UniProt P35414). Description: biochemical. In kind it is biochemical. As to conditions: [35S]GTPγS binding, CHO membranes expressing human APJ receptor; read-out: Activity hAPJ SPA EC50 IP. In short, it runs like this:
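GTPγS binding on membranes from CHO cells stably expressing FLAG-tagged human APJ, with optimized GDP, MgCl2 and NaCl; incubated 90 min at RT before imaging read-out.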
(In general: Binding of GTPγS marks nucleotide exchange on a G protein.)

Sequence of human APJ receptor (P35414 whole entry): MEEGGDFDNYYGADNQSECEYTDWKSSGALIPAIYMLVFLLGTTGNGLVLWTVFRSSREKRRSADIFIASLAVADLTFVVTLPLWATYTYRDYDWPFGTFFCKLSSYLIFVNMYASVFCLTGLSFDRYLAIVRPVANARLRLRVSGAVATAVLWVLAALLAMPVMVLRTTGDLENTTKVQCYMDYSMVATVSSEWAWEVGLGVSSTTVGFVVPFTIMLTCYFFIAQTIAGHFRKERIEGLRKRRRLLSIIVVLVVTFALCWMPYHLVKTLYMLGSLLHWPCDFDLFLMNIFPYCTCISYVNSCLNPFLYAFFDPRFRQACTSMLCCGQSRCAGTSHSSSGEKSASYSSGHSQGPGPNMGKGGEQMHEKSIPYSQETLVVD

On to `COc1cccc(OC)c1-n1c(NS(=O)(=O)[C@@H](C)[C@H](OC)c2ncc(C)cn2)nnc1-c1noc2ccccc12` [Example 87.0, (1R,2S)-N-(5-(benzo[d]isoxazol-3-yl)-4-(2,6-dimethoxyphenyl)-4H-1,2,4-triazol-3-yl)-1-methoxy-1-(5-methylpyrimidin-2-yl)propane-2-sulfonamide], for which the half-maximal effective concentration (EC50) was found to be 82 nM.

Turning to `CO[C@H](c1ncc(Cl)cn1)[C@H](C)S(=O)(=O)Nc1nnc(-c2nn(C)c3c2CCCC3)n1C1CC1` [Example 514.0, (1R,2S)-1-(5-chloropyrimidin-2-yl)-N-(4-cyclopropyl-5-(1-methyl-4,5,6,7-tetrahydro-1H-indazol-3-yl)-4H-1,2,4-triazol-3-yl)-1-methoxypropane-2-sulfonamide], the EC50 is 19 nM.

Take `COc1cccc(OC)c1-n1c(NS(=O)(=O)[C@@H](C)[C@H](OC)c2ncc(C)cn2)nnc1-c1nn(C)c2ccccc12` [Example 436.0, (1R,2S)-N-(4-(2,6-dimethoxyphenyl)-5-(1-methyl-1H-indazol-3-yl)-4H-1,2,4-triazol-3-yl)-1-methoxy-1-(5-methylpyrimidin-2-yl)propane-2-sulfonamide]: the EC50 amounted to 0.81 nM.

Consider `COc1cncc(-c2nnc(NS(=O)(=O)[C@@H](C)Cc3ncc(F)cn3)n2-c2c(OC)cccc2OC)n1` (single isomer, unassigned) [Example 188.0, (2S)-N-(4-(2,6-dimethoxyphenyl)-5-(6-methoxy-2-pyrazinyl)-4H-1,2,4-triazol-3-yl)-1-(5-fluoro-2-pyrimidinyl)-2-propanesulfonamide or (2R)-N-(4-(2,6-dimethoxyphenyl)-5-(6-methoxy-2-pyrazinyl)-4H-1,2,4-triazol-3-yl)-1-(5-fluoro-2-pyrimidinyl)-2-propanesulfonamide], for which the half-maximal effective concentration (EC50) was determined as 15 nM.

Take `COCC(COC)n1c(NS(=O)(=O)[C@@H](C)[C@H](C)c2ncc(Cl)cn2)nnc1-c1nn(C)c2ccccc12` [Example 449.0, (2S,3R)-3-(5-chloropyrimidin-2-yl)-N-(4-(1,3-dimethoxypropan-2-yl)-5-(1-methyl-1H-indazol-3-yl)-4H-1,2,4-triazol-3-yl)butane-2-sulfonamide]: the EC50 is 13 nM.

As to `COCC(COC)n1c(NS(=O)(=O)[C@@H](C)[C@H](C)c2cnc(OC)cn2)nnc1-c1ccn(C)n1` [Example 453.0, (2S,3R)-N-(4-(1,3-dimethoxy-2-propanyl)-5-(1-methyl-1H-pyrazol-3-yl)-4H-1,2,4-triazol-3-yl)-3-(5-methoxy-2-pyrazinyl)-2-butanesulfonamide], the EC50 came out at 73 nM.

For “(R)-N-(4-(2,6-dimethoxyphenyl)-5-(1H-pyrazol-3-yl)-4H-1,2,4-triazol-3-yl)-1-(5-fluoropyrimidin-2-yl)propane-2-sulfonamide and (S)-N-(4-(2,6-dimethoxyphenyl)-5-(1H-pyrazol-3-yl)-4H-1,2,4-triazol-3-yl)-1-(5-fluoropyrimidin-2-yl)propane-2-sulfonamide [Example 71.0]”, the EC50 amounted to 41 nM.

As for `COc1cccc(OC)c1-n1c(NS(=O)(=O)[C@@H](C)[C@H](C)c2ncc(F)cn2)nnc1-c1cncc(C)n1` [Example 209.0, (2S,3R)-N-(4-(2,6-dimethoxyphenyl)-5-(6-methyl-2-pyrazinyl)-4H-1,2,4-triazol-3-yl)-3-(5-fluoro-2-pyrimidinyl)-2-butanesulfonamide], the EC50 came out at 1.5 nM.

Regarding `COc1cccc(OC)c1-n1c(NS(=O)(=O)[C@@H](C)[C@H](OC)c2ncc(C)cn2)nnc1-c1ccon1` [Example 90.0, (1R,2S)-N-(4-(2,6-dimethoxyphenyl)-5-(isoxazol-3-yl)-4H-1,2,4-triazol-3-yl)-1-methoxy-1-(5-methylpyrimidin-2-yl)propane-2-sulfonamide], the EC50 came out at 33 nM.

`COc1cncc(-c2nnc(NS(=O)(=O)[C@@H](C)[C@H](OC)c3cnc(C)cn3)n2-c2c(OC)cccc2OC)n1` [Example 327.0, (1R,2S)-N-(4-(2,6-dimethoxyphenyl)-5-(6-methoxy-2-pyrazinyl)-4H-1,2,4-triazol-3-yl)-1-methoxy-1-(5-methyl-2-pyrazinyl)-2-propanesulfonamide]: the EC50 stood at 4 nM.

`COc1cccc(OC)c1-n1c(NS(=O)(=O)[C@@H](C)[C@H](C)c2ncc(Cl)cn2)nnc1-c1cnn2c1CCC2` [Example 445.0, (2S,3R)-3-(5-chloropyrimidin-2-yl)-N-(5-(5,6-dihydro-4H-pyrrolo[1,2-b]pyrazol-3-yl)-4-(2,6-dimethoxyphenyl)-4H-1,2,4-triazol-3-yl)butane-2-sulfonamide]: the EC50 came out at 0.089 nM.

As for `COc1cccc(OC)c1-n1c(NS(=O)(=O)[C@H](C)[C@@H](OC)c2ccc(C#N)cc2C#N)nnc1-c1ccn(C)n1` (single isomer, unassigned) [Example 266.0, (1S,2R)-1-(2,4-dicyanophenyl)-N-(4-(2,6-dimethoxyphenyl)-5-(1-methyl-1H-pyrazol-3-yl)-4H-1,2,4-triazol-3-yl)-1-methoxy-2-propanesulfonamide or (1R,2S)-1-(2,4-dicyanophenyl)-N-(4-(2,6-dimethoxyphenyl)-5-(1-methyl-H-pyrazol-3-yl)-4H-1,2,4-triazol-3-yl)-1-methoxy-2-propanesulfonamide], the EC50 worked out at 0.4 nM.

On to `COc1cccc(OC)c1-n1c(NS(=O)(=O)[C@@H](C)[C@H](OC)c2ncc(Cl)cn2)nnc1-c1n[nH]c2ccc(C)cc12` [Example 418.0, (1R,25)-1-(5-chloropyrimidin-2-yl)-N-(4-(2,6-dimethoxyphenyl)-5-(5-methyl-1H-indazol-3-yl)-4H-1,2,4-triazol-3-yl)-1-methoxypropane-2-sulfonamide], for which the EC50 is 5.5 nM.

Regarding `COc1cccc(OC)c1-n1c(NS(=O)(=O)[C@@H](C)Cc2ncc(F)cn2)nnc1-c1cccnn1` (single isomer, unassigned) [Example 32.0, (2S)-N-(4-(2,6-dimethoxyphenyl)-5-(3-pyridazinyl)-4H-1,2,4-triazol-3-yl)-1-(5-fluoro-2-pyrimidinyl)-2-propanesulfonamide or (2R)-N-(4-(2,6-dimethoxyphenyl)-5-(3-pyridazinyl)-4H-1,2,4-triazol-3-yl)-1-(5-fluoro-2-pyrimidinyl)-2-propanesulfonamide], the EC50 worked out at 17 nM.

Regarding `COc1cccc(OC)c1-n1c(NS(=O)(=O)[C@H](C)Cc2ncc(F)cn2)nnc1-c1nc(C)cs1` [Example 103.0], the EC50 was 8.4 nM.

As for `COc1cccc(OC)c1-n1c(NS(=O)(=O)[C@@H](C)[C@H](C)c2ncc(C)cn2)nnc1-c1noc2ccccc12` [Example 77.0, (2S,3R)-N-(5-(benzo[d]isoxazol-3-yl)-4-(2,6-dimethoxyphenyl)-4H-1,2,4-triazol-3-yl)-3-(5-methylpyrimidin-2-yl)butane-2-sulfonamide], the EC50 was 4.1 nM.

Turning to `COc1cccc(OC)c1-n1c(NS(=O)(=O)[C@@H](C)[C@H](OC)c2ncc(C)cn2)nnc1-c1cc(C)on1` [Example 425.0, (1R,25)-N-(4-(2,6-dimethoxyphenyl)-5-(5-methylisoxazol-3-yl)-4H-1,2,4-triazol-3-yl)-1-sulfonamide], the EC50 stood at 8.1 nM.

On to `COc1cccc(OC)c1-n1c(NS(=O)(=O)[C@@H](C)[C@H](OC)c2ncc(Cl)cn2)nnc1-c1cc2n(n1)CCC2` [Example 210.0, (1R,2S)-1-(5-chloro-2-pyrimidinyl)-N-(5-(5,6-dihydro-4H-pyrrolo[1,2-b]pyrazol-2-yl)-4-(2,6-dimethoxyphenyl)-4H-1,2,4-triazol-3-yl)-1-methoxy-2-propanesulfonamide], for which the EC50 stood at 0.83 nM.

With `COc1cccc(OC)c1-n1c(NS(=O)(=O)[C@@H](C)[C@H](OC)c2ncc(C)cn2)nnc1-c1cnn2ccccc12` [Example 415.0, (1R,2S)-N-(4-(2,6-dimethoxyphenyl)-5-(pyrazolo[1,5-a]pyridin-3-yl)-4H-1,2,4-triazo1-3-yl)-1-methoxy-1-(5-methylpyrimidin-2-yl)propane-2-sulfonamide], the EC50 turned out to be 5.2 nM.

Take `COc1ccccc1-n1c(NS(=O)(=O)CCc2ccc(Cl)cc2)nnc1-c1cccs1` [Example 236.0, 2-(4-chlorophenyl)-N-(4-(2-methoxyphenyl)-5-(thiophen-2-yl)-4H-1,2,4-triazol-3-yl)ethanesulfonamide]: the EC50 is 120 nM.

For the compound `COc1cccc(OC)c1-n1c(NS(=O)(=O)[C@@H](C)[C@H](C)c2ncc(Cl)cn2)nnc1-c1cc(C)on1` [Example 498.0, (2S,3R)-3-(5-chloropyrimidin-2-yl)-N-(4-(2,6-dimethoxyphenyl)-5-(5-methylisoxazol-3-yl)-4H-1,2,4-triazol-3-yl)butane-2-sulfonamide], the EC50 turned out to be 0.44 nM.

As to `CCn1ccc(-c2nnc(NS(=O)(=O)[C@@H](C)[C@H](O)c3ncc(C)cn3)n2-c2c(OC)cccc2OC)n1` [Example 388.0, (1R,2S)-N-(4-(2,6-Dimethoxyphenyl)-5-(1-ethyl-1H-pyrazol-3-yl)-4H-1,2,4-triazol-3-yl)-1-hydroxy-1-(5-methylpyrimidin-2-yl)propane-2-sulfonamide], the EC50 turned out to be 0.37 nM.

For the compound `COc1cccc(OC)c1-n1c(NS(=O)(=O)[C@@H](C)[C@H](OC)c2ncc(Cl)cn2)nnc1-c1ncnc2cc[nH]c12` [Example 434.0, (1R,2S)-1-(5-chloropyrimidin-2-yl)-N-(4-(2,6-dimethoxyphenyl)-5-(5H-pyrrolo[3,2-d]pyrimidin-4-yl)-4H-1,2,4-triazol-3-yl)-1-methoxypropane-2-sulfonamide], the EC50 amounted to 8.6 nM.

As to `COc1cccc(OC)c1-n1c(NS(=O)(=O)[C@H](C)Cc2ncc(F)cn2)nnc1-c1nc(C)cs1` (single isomer, unassigned) [Example 102.0, (R)-N-(4-(2,6-Dimethoxyphenyl)-5-(4-methylthiazol-2-yl)-4H-1,2,4-triazol-3-yl)-1-(5-fluoropyrimidin-2-yl)propane-2-sulfonamide or (S)-N-(4-(2,6-dimethoxyphenyl)-5-(4-methylthiazol-2-yl)-4H-1,2,4-triazol-3-yl)-1-(5-fluoropyrimidin-2-yl)propane-2-sulfonamide], the EC50 is 4.1 nM.
